Earlier results as cited in US5872104A, “Combinations and methods for reducing antimicrobial resistance” (Oridigm Corporation, priority 1994, dated 1999).
Values after ≈ are worked out from the molar mass of the structure shown. “Also recorded” adds a separate entry of the source. Like-named read-outs stand apart in the source and are kept apart here.

What was measured:
lysosomal ADA = details: 0.02 mM; cited from earlier work
adenosine deaminase = details: cited from earlier work
neoplastic cells = details: cited from earlier work
[1] = 1 mg/kg/day for 5 days; cited from earlier work
[2] = test system: 28S and 18S rRNA formation; details: cited from earlier work
[3] = test system: Staphylococcus aureus, methicillin susceptible; details: in µg/mL; cited from earlier work
[4] = test system: Staphylococcus aureus, methicillin resistant; details: cited from earlier work
[5] = test system: Streptococcus pyogenes (group A), erythromycin susceptible; details: cited from earlier work
Streptococcus pneumoniae = details: in µg/mL; cited from earlier work
[6] = test system: Streptococcus agalactactiae (group B); details: in µg/mL; cited from earlier work
Viridans streptococci = details: cited from earlier work
Listeria monocytogenes = details: in µg/mL; cited from earlier work
Haemophilus influenzae = details: in µg/mL; cited from earlier work
Moraxella catarrhalis = details: in µg/mL; cited from earlier work
Neisseria gonorrhoeae = details: in µg/mL; cited from earlier work
Legionella pneumophila = details: in µg/mL; cited from earlier work
Campylobacter species = details: in µg/mL; cited from earlier work
Bacteroides fragilis = details: anaerobes; in µg/mL; cited from earlier work
Clostridium perfringens = details: anaerobes; in µg/mL; cited from earlier work
[7] = test system: Chlamydia pneumoniae (formerly TWAR); details: in µg/mL; cited from earlier work
Chlamydia trachomatis = details: in µg/mL; cited from earlier work
Mycoplasma pneumoniae = details: in µg/mL; cited from earlier work
[8] = versus erythromycin; cited from earlier work
H. influenzae = details: versus erythromycin; cited from earlier work
anaerobic bacteria = details: cited from earlier work
rat leukemia (BNML) = details: nitrous oxide plus cycloleucine; cited from earlier work
methionine synthetase = details: cited from earlier work
Salmonella typhimurium = details: elevated pressures; cited from earlier work
Streptococcus faecalis = details: elevated pressures; cited from earlier work
E. coli = details: elevated pressures; cited from earlier work
S. aureus = details: elevated pressures; cited from earlier work
[9] = prolonged exposure to clinical concentrations; cited from earlier work
[10] = test system: RNA methyltransferase from Streptomyces antibioticus; details: 50 μM; cited from earlier work
[11] = test system: RNA methyltransferases from Streptomyces (S. antibioticus, S. incarnatus, S. griseolus); details: cited from earlier work
[12] = test system: DNA methylases from S. antibioticus; details: non-sinefungin producer; cited from earlier work
tRNA methylation = details: cited from earlier work
S. antibioticus = details: cited from earlier work
rRNA of S. cerevisiae = details: cited from earlier work
[13] = test system: vaccinia virion mRNA(guanine-7)methyltransferase; details: cited from earlier work
[14] = test system: vaccinia virion mRNA(nucleoside-2'-)methyltransferase; details: cited from earlier work
[15] = test system: Newcastle disease virion mRNA(guanine-7-)methyltransferase; details: cited from earlier work
virion plaque formation = details: 10 μM; cited from earlier work
cellular toxicity = details: cited from earlier work
Cryptosporidium parvum = details: in vivo; cited from earlier work
cutaneous Leishmaniasis = details: mouse, in vivo; cited from earlier work
Brucella canis = details: 2×10 mg/kg; cited from earlier work

OC[C@H]1O[C@@H](n2cnc3c2NC=NC[C@H]3O)C[C@@H]1O [2'-deoxyconformycin (pentostatin)]
inhibition of lysosomal ADA (lysosomal ADA): > 97%
ADA inhibition (adenosine deaminase): potent inhibitors of ADA
safe and effective low weekly dose (protracted ADA inhibition in neoplastic cells) (neoplastic cells): 0.13 mg/kg
tolerability in patients [1]: minimal distress

Nc1ncn([C@@H]2O[C@H](CO)[C@@H](O)[C@H]2O)c(=O)n1 [5-Azacitidine]
formation of 28S and 18S RNA [2]: severely inhibited

CC[C@H]1OC(=O)[C@H](C)[C@@H](O[C@H]2C[C@@](C)(OC)[C@@H](O)[C@H](C)O2)[C@H](C)[C@@H](O[C@@H]2O[C@H](C)C[C@H](N(C)C)[C@H]2O)[C@](C)(OC)C[C@@H](C)C(=O)[C@H](C)[C@@H](O)[C@]1(C)O [Clarithromycin]
MIC90 [3]: 0.12-0.24
MIC90 [4]: > 128 mg/L
MIC90 [5]: 0.015 mg/L (≈ 0.0201 µM)
MIC90 (Streptococcus pneumoniae): 0.015
MIC90 [6]: 0.03-0.25
MIC90 (Viridans streptococci): 0.03 mg/L (≈ 0.0401 µM)
MIC90 (Listeria monocytogenes): 0.12-2.0
MIC90 (Haemophilus influenzae): 2.0-16.0
MIC90 (Moraxella catarrhalis): 0.25-1.0
MIC90 (Neisseria gonorrhoeae): 0.25-2.0
MIC90 (Legionella pneumophila): 0.25
MIC90 (Campylobacter species): 1.0-8.0
MIC90 (Bacteroides fragilis): 2.0-8.0
MIC90 (Clostridium perfringens): 0.5-2.0
MIC90 [7]: 0.007
MIC90 (Chlamydia trachomatis): 0.06-0.125
MIC90 (Mycoplasma pneumoniae): 0.008-0.03
stability [8]: better stability properties
H. influenzae activity (H. influenzae): enhanced H. influenzae activity

CCC[C@@H]1C[C@@H](C(=O)N[C@@H]([C@H]2O[C@H](SC)[C@H](O)[C@@H](O)[C@H]2O)[C@H](C)Cl)N(C)C1 [clindamycin]
activity against anaerobic bacteria (anaerobic bacteria): potent against anaerobic bacteria

[N-]=[N+]=O [nitrous oxide]
growth inhibiting effects (rat leukemia (BNML)): synergistic growth inhibiting effects
methionine synthetase (methionine synthetase): inhibiting methionine synthetase
inhibition of bacteria (Salmonella typhimurium): inhibited
inhibition of bacteria (Streptococcus faecalis): inhibited
inhibition of bacteria (E. coli): inhibited
inhibition of bacteria (S. aureus): inhibited
adverse effects of prolonged exposure [9]: inhibits cellular proliferation and can lead to megaloblastic anemia, leukopenia, and thrombocytopenia

Nc1ncnc2c1ncn2[C@@H]1O[C@H](C[C@@H](N)CC[C@H](N)C(=O)O)[C@@H](O)[C@H]1O [sinefungin]
inhibition [10]: 96%
inhibition of RNA methyltransferases [11]: strongly inhibit RNA methyltransferases; also recorded: inhibited RNA methyltransferase
inhibition of DNA methylases [12]: noticeably inhibited
inhibition of methylation by base (tRNA methylation): inhibits the methylation of adenine or guanine to a greater extent than cytosine in tRNA
inhibition of methylation by base (tRNA methylation; listed as Sinefungin): very strongly inhibits the methylation of G in position 2 and 7, and that of A in position 1 and 6
sporulation (S. antibioticus): inhibits sporulation
synthesis of DNA methyltransferases (S. antibioticus): didn't inhibit the synthesis of DNA methyltransferases
rRNA methylation / stable 18S rRNA (rRNA of S. cerevisiae): inhibits methylation of rRNA in S.cerevisiae and leads to a decrease in stable 18S rRNA
inhibition ([13]; 100 μM): 100%
inhibition [13]: potent inhibitors
inhibition [14]: potent inhibitors
inhibition [15]: potent inhibitors
inhibition of virion plaque formation (virion plaque formation): significant inhibition of virion plaque formation
cellular toxicity (cellular toxicity; 10 μM): no cellular toxicity was detected
cellular toxicity (cellular toxicity; higher concentrations (above 10 μM)): significant cellular toxicity
usable dosage in rat model (Cryptosporidium parvum): 10 mg/kg/day
optimum dosage (cutaneous Leishmaniasis): 4 mg/kg/day
optimum dosage: times lower than the LD50 (cutaneous Leishmaniasis): 50 times

[H]/N=C(/N)N[C@H]1[C@H](O)[C@@H](O)[C@H](O[C@@H]2O[C@@H](C)[C@](O)(C=O)[C@H]2O[C@@H]2O[C@@H](CO)[C@H](O)[C@@H](O)[C@@H]2NC)[C@@H](N/C(N)=N\[H])[C@@H]1O [streptomycin]
surviving bacteria (Brucella canis): only a minor reduction in the number of surviving bacteria
